viscosity of the solution (aqueous 7% solution of the active substance),viscosity (2% aqueous solution of the active substance) [mpas*sec],Compound
500-600 mpa*sec,–,"CCCCCCCCCCCCSCC(COP(=O)([O-])OCC1OC(n2cc(C)c(=O)[nH]c2=O)CC1N=[N+]=[N-])OCCCCCCCCCC.[Na+] (centres unmarked) [Example 1 active substance, Na salt of 3′-azido-3′-deoxy-5′-thymidylic acid-mono[3-(dodecyl-thio)-2-decyloxypropyl]-ester]"
–,6,"CCCCCCCCCCCCSCC(COP(=O)([O-])OCC1OC(n2cc(C)c(=O)[nH]c2=O)CC1F)OCCCCCCCCCC.[Na+] (centres unmarked) [Example 3 active substance, Na salt of 3′-fluoro-3′-deoxy-5′-thymidylic acid-mono[3-(dodecyl-thio)-2-decyloxypropyl]-ester]"

# Reference: patent publication US6521262B2, “Solid instant-release forms of administration and process for producing the same” (Heidelberg Pharma Holding GmbH, priority 1996, dated 2003)
